Reference: PubChem BioAssay (NCI)
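48-hour exposure; five concentrations; linearly interpolated endpoints. GI50 = concentration required for 50% inhibition of growth. TGI: total growth inhibition.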

Columns and labels:
Assay in all cases: inhibition of tumour cell growth, NCI panel, 48 h
SK-MEL-5 melanoma = system: SK-MEL-5 melanoma
SNB-19 CNS = system: SNB-19 CNS
PC-3 prostate = system: PC-3 prostate
SW-620 colon = system: SW-620 colon
SF-539 CNS = system: SF-539 CNS
SF-295 CNS = system: SF-295 CNS
NCI-H522 lung = system: NCI-H522 lung
MALME-3M melanoma = system: MALME-3M melanoma
BT-549 breast = system: BT-549 breast
K-562 leukemia = system: K-562 leukemia
HOP-62 NSCLC = system: HOP-62 NSCLC
RXF 393 renal = system: RXF 393 renal
UO-31 renal = system: UO-31 renal
NCI/ADR-RES ovarian = system: NCI/ADR-RES ovarian
SK-MEL-2 melanoma = system: SK-MEL-2 melanoma
SK-OV-3 ovarian = system: SK-OV-3 ovarian
MOLT-4 leukemia = system: MOLT-4 leukemia
MDA-MB-231 breast = system: MDA-MB-231 breast
SK-MEL-28 melanoma = system: SK-MEL-28 melanoma
T-47D breast = system: T-47D breast
SNB-75 CNS = system: SNB-75 CNS
HCT-116 colon = system: HCT-116 colon
LOX IMVI melanoma = system: LOX IMVI melanoma
EKVX NSCLC = system: EKVX NSCLC
COLO 205 colon = system: COLO 205 colon
UACC-62 melanoma = system: UACC-62 melanoma
HS 578T breast = system: HS 578T breast
CAKI-1 renal = system: CAKI-1 renal
A498 renal = system: A498 renal
DU-145 prostate = system: DU-145 prostate

Cc1noc2c(Cc3ccccc3)nn(CC(=O)N/N=C/c3ccc(F)cc3)c(=O)c12
GI50 (SK-MEL-5 melanoma): 33.2 µM
TGI (SK-MEL-5 melanoma): > 100 µM
GI50 (SNB-19 CNS): 6.74 µM
TGI (SNB-19 CNS): 24.2 µM
GI50 (PC-3 prostate): 66.1 µM
TGI (PC-3 prostate): > 100 µM
GI50 (SW-620 colon): > 100 µM
TGI (SW-620 colon): > 100 µM
GI50 (SF-539 CNS): 16.7 µM
TGI (SF-539 CNS): 37.3 µM
GI50 (SF-295 CNS): 3.33 µM
TGI (SF-295 CNS): 17.3 µM
GI50 (NCI-H522 lung): 19.1 µM
TGI (NCI-H522 lung): 73.6 µM
GI50 (MALME-3M melanoma): 8.99 µM
TGI (MALME-3M melanoma): 38.5 µM
GI50 (BT-549 breast): 14.5 µM
TGI (BT-549 breast): 37.8 µM
GI50 (K-562 leukemia): 84.4 µM
TGI (K-562 leukemia): > 100 µM
GI50 (HOP-62 NSCLC): 5.29 µM
TGI (HOP-62 NSCLC): 21 µM
GI50 (RXF 393 renal): 5.4 µM
TGI (RXF 393 renal): 21.2 µM
GI50 (UO-31 renal): 18 µM
TGI (UO-31 renal): > 100 µM
GI50 (NCI/ADR-RES ovarian): 21.3 µM
TGI (NCI/ADR-RES ovarian): > 100 µM
GI50 (SK-MEL-2 melanoma): 16.3 µM
TGI (SK-MEL-2 melanoma): 33.3 µM
GI50 (SK-OV-3 ovarian): 4.4 µM
TGI (SK-OV-3 ovarian): 16 µM
GI50 (MOLT-4 leukemia): > 100 µM
TGI (MOLT-4 leukemia): > 100 µM
GI50 (MDA-MB-231 breast): 4.92 µM
TGI (MDA-MB-231 breast): 21.8 µM
GI50 (SK-MEL-28 melanoma): > 100 µM
TGI (SK-MEL-28 melanoma): > 100 µM
GI50 (T-47D breast): 5.62 µM
TGI (T-47D breast): > 100 µM
GI50 (SNB-75 CNS): 8.25 µM
TGI (SNB-75 CNS): 32.2 µM
GI50 (HCT-116 colon): 5.08 µM
TGI (HCT-116 colon): 77.3 µM
GI50 (LOX IMVI melanoma): 33 µM
TGI (LOX IMVI melanoma): > 100 µM
GI50 (EKVX NSCLC): > 100 µM
TGI (EKVX NSCLC): > 100 µM
GI50 (COLO 205 colon): > 100 µM
TGI (COLO 205 colon): > 100 µM
GI50 (UACC-62 melanoma): 20.9 µM
TGI (UACC-62 melanoma): 66.8 µM
GI50 (HS 578T breast): 4.65 µM
TGI (HS 578T breast): 46.7 µM
GI50 (CAKI-1 renal): 6.13 µM
TGI (CAKI-1 renal): 32.1 µM
GI50 (A498 renal): 11 µM
TGI (A498 renal): 33.7 µM
GI50 (DU-145 prostate): > 100 µM
